# Results taken from patent US5422350A, “Nitrogen substituted acridine and cytochrome P450 inhibitors and methods of use” (priority 1992, dated 1995).
# Where two headings read alike, the source gives them in different places.
# Key:
# P450 1A2 [1] = target: T1, P450 1A2 (Homo sapiens, UniProt P05177); assay: in vitro; conditions: human, microsomes
# T1 sequence (P05177 2-516 limits assumed): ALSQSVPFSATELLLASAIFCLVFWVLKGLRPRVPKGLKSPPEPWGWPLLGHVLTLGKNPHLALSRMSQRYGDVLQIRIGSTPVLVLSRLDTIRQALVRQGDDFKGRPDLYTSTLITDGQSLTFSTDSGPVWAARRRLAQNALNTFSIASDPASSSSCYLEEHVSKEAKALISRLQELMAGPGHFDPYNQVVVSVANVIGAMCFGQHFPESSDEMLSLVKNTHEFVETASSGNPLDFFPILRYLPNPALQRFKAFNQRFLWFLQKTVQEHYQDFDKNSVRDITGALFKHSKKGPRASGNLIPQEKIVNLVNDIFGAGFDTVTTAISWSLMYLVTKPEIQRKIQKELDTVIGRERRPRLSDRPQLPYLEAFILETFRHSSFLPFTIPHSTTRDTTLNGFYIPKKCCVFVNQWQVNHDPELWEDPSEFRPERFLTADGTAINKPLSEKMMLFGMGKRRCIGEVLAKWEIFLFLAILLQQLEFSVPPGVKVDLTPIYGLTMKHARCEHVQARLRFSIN
# Procedure: (§1) PHARMACOL., Vol. 42, pp. 767-772 (1990) was conducted. […] The effect of various enoxacin concentrations (8, 20, and 50 μM) on the extent of irreversible binding was examined in a separate study.
# P450 1A2 [2] = assay: in vitro
# Procedure: as §1
# [3] = In vitro metabolism of 14C-tacrine in rat liver microsomes; conditions: for TAC: w/out NADPH
# Procedure: (§2) Total reaction volume was 3 mL. Reactions were stopped by freezing in liquid nitrogen or dry-ice acetone. […] D. J. Waxman and L. Axaroff, "Phenobarbital induction of cytochrome P-450 Gene Expression", BIOCHEM J, Vol. 281, pp. 577-592 (1992); P. Soucek and I. Gut, supra.
# [4] = Procedure: as §2
# P4501A2 = conditions: co-incubation with tacrine
# Procedure: as §2
# [5] = Clinical drug interaction study, tacrine with cimetidine; type: in vivo, human; conditions: 40 mg tacrine with 300-mg four times a day cimetidine vs tacrine alone
# Text: A. Somogyi and M. Muirhead, "Pharmacokinetic Interactions of Cimetidine", CLIN. PHARMACOKIN., Vol. 12, pp. 321-366 (1987).
# [6] = cited from earlier work
# [7] = Single-dose pharmacokinetic and metabolic disposition study of [14C]tacrine HCl in human male volunteers; type: in vivo; conditions: for mean cumulative fecal recovery of 14C activity / mean cumulative urinary recovery of 14C activity / mean total recovery: 5760 min
# Procedure: Plasma and red blood cells (RBC) were collected predose and for 48 hours postdose. Urine and feces were collected predose and for 96 hours postdose. Urine and plasma samples were analyzed directly by liquid scintillation spectrometry while RBC and fecal samples were solubilized prior to counting. […] Metabolic profiling of urine was performed by HPLC radioactivity detection. Metabolites were identified by HPLC/photodiode array/mass spectrometry.
# [8] = Irreversible protein binding of 14C-tacrine-derived radioactivity, human liver microsomes
# Procedure: as §2
# (§3) C. N. Martin and R. C. Garner: "Covalent Binding In Vitro and In Vivo" in BIOCHEMICAL TOXICOLOGY: A PRACTICAL APPROACH, Eds. K. Snell and B. Mullock, IRL, Wash. D.C. pp. 109-126 (1987).
# [9] = Irreversible protein binding of 14C-tacrine-derived radioactivity, rat liver microsomes; conditions: 60 min
# Procedure: as §2, §3
# rat hepatocytes = assay: Irreversible binding of tacrine-derived radioactivity to rat hepatocytes with chloroquine; type: in vitro ADME; conditions: Tacrine alone
# Text: D. J. Back, H. S. Purba, C. […] PHARMACOL., Vol. 32, pp. 257-264 (1983). Ethoxyresorufin O-deethylation is selectively catalyzed by P450 1A2. C. Gleizes, C. […] PHARMACOL. VOL. 41, pp. 1813-1820 (1991).
# [10] = MC induced Rat, w/NADPH, 60 min
# [11] = Noninduced Rat, w/NADPH, 60 min
# [12] = PB induced Rat, w/NADPH, 60 min
# [13] = Human Prep (letter not given), w/NADPH, 60 min
# [14] = I induced Rat, with NADPH, N = 3
# [15] = MC induced Rat, with NADPH, N = 3
# [16] = Noninduced Rat, with NADPH, N = 3
# [17] = PB induced Rat, with NADPH, N = 3
smiles,measurement,setting,value
"Cl.Nc1c2c(nc3ccccc13)CCCC2.O [Tacrine, 1,2,3,4-tetrahydro-9-acridinamine monohydrate monohydrochloride]",Km,P450 1A2 [1],< 5 µM
same,irreversible binding of derived radioactivity to microsomal protein,"P450 1A2 [2]; Table 6, deletion of NADPH",no irreversible
same,Tacrine equivalents irreversibly bound to 1 mg microsomal protein,"P450 1A2 [2]; Table 6, tacrine 0.3 μM, enoxacin 0.0, 20 min, N = 3, SD",0.040
same,Tacrine equivalents irreversibly bound to 1 mg microsomal protein,"P450 1A2 [2]; tacrine 0.5 μM alone, 5 min, N = 3, SD",0.022 ± 0.005 nmol
same,Tacrine equivalents irreversibly bound to 1 mg microsomal protein,"P450 1A2 [2]; tacrine 0.5 μM alone, 10 min",0.048 ± 0.006 nmol
same,Tacrine equivalents irreversibly bound to 1 mg microsomal protein,"P450 1A2 [2]; tacrine 0.5 μM alone, 20 min",0.096 ± 0.006 nmol
same,Tacrine equivalents irreversibly bound to 1 mg microsomal protein,"P450 1A2 [2]; tacrine 0.5 μM alone, 45 min",0.148 ± 0.024 nmol
same,1-OH,"[3]; I induced Rat, w/NADPH, 60 min",1.57 nmole equivalents
same,POLAR UNKS,"[3]; I induced Rat, w/NADPH, 60 min",0.083 nmole equivalents
same,TAC,"[3]; I induced Rat, 60 min",1.14 nmole equivalents
same,1-OH,[3]; [10],0.790 nmole equivalents
same,4-OH,[3]; [10],0.018 nmole equivalents
same,POLAR UNKS,[3]; [10],0.009 nmole equivalents
same,UNKS,[3]; [10],0.091 nmole equivalents
same,TAC,"[3]; MC induced Rat, 60 min",1.16 nmole equivalents
same,1-OH,[3]; [11],0.994 nmole equivalents
same,2-OH,[3]; [11],0.088 nmole equivalents
same,POLAR UNKS,[3]; [11],0.022 nmole equivalents
same,TAC,"[3]; Noninduced Rat, 60 min",1.22 nmole equivalents
same,1-OH,[3]; [12],1.15 nmole equivalents
same,2-OH,[3]; [12],0.144 nmole equivalents
same,POLAR UNKS,[3]; [12],0.026 nmole equivalents
same,TAC,"[3]; PB induced Rat, 60 min",1.20 nmole equivalents
same,1-hydroxytacrine produced,[3]; rat vs human preparations,more 1-hydroxytacrine produced as compared to human preparations
same,1-OH,[4]; [13],0.750 nmole equivalents
same,4-OH,[4]; [13],0.039 nmole equivalents
same,POLAR UNKS,[4]; [13],0.039 nmole equivalents
same,UNKS,[4]; [13],0.146 nmole equivalents
same,TAC,"[4]; Human Prep (letter not given), w/out NADPH, 60 min",1.34 nmole equivalents
same,1-OH,"[4]; Human Prep C, w/NADPH, 60 min",0.599 nmole equivalents
same,2-OH,"[4]; Human Prep C, w/NADPH, 60 min",0.095 nmole equivalents
same,POLAR UNKS,"[4]; Human Prep C, w/NADPH, 60 min",0.035 nmole equivalents
same,UNKS,"[4]; Human Prep C, w/NADPH, 60 min",0.139 nmole equivalents
same,TAC,"[4]; Human Prep C, w/out NADPH, 60 min",1.07 nmole equivalents
same,1-OH,"[4]; Human Prep D, w/NADPH, 60 min",0.201 nmole equivalents
same,TAC,"[4]; Human Prep D, w/NADPH, 60 min",0.803 nmole equivalents
same,TAC,"[4]; Human Prep D, w/out NADPH, 60 min",1.086 nmole equivalents
same,extent of metabolism,[4]; human liver preparation D,only partial tacrine turnover
same,major product detected,[4]; human liver preparations,1-hydroxytacrine with minor amounts of the 2- and 4-hydroxytacrine regioisomers
same,extent of metabolism,"[4]; human liver preparations B and C, within 60 min",completely metabolized
same,effect on 1-hydroxytacrine metabolism by P4501A2,P4501A2,inhibited
same,higher plasma concentrations,[5],approximately 40%
same,extent of metabolism,[6]; animals and man,extensively metabolized
same,formation of THA metabolites in serum,[6]; patients given THA,very rapid formation of THA metabolites
same,liver enzymes after administration,[6]; patients,elevations of liver enzymes are found in some patients
same,"Mean AUC(O-tldc) for tacrine, 1-, 2-, and 4-hydroxytacrine as part of total mean plasma radioactivity AUC(O-tldc)",[7]; 10 mg oral,approximately 3%
same,"Mean AUC(O-tldc) for tacrine, 1-, 2-, and 4-hydroxytacrine as part of total mean plasma radioactivity AUC(O-tldc)",[7]; 40 mg oral,~4%
same,mean cumulative fecal recovery of 14C activity,[7]; 10-mg oral,23.2 % of dose
same,mean cumulative urinary recovery of 14C activity,[7]; 10-mg oral,56.5 % of dose
same,mean total recovery,[7]; 10-mg oral,79.4%
same,"mean plasma total radioactivity AUC(O-tldc), dose proportionality",[7]; 10 and 40 mg oral,increased in a dose proportional manner
same,"mean AUC(O-tldc), dose proportionality","[7]; 10 and 40 mg oral, plasma",increased greater than dose proportionally
same,difference in metabolic profiles between dose levels,"[7]; 10 vs 40 mg, urine",No apparent differences
same,mean cumulative fecal recovery of 14C activity,[7]; 40-mg oral,20.8%
same,mean cumulative urinary recovery of 14C activity,[7]; 40-mg oral,54.1%
same,mean total recovery,[7]; 40-mg oral,74.9%
same,Tmax,"[7]; human, plasma, po, read-out: Time to maximum plasma concentration (tmax)",~2 h
same,"polar radioactive components, of urinary radioactivity",[7]; urine through 24 hours,67%
same,unchanged drug excreted in urine,[7]; urine through 24 hours,only trace amounts of unchanged drug excreted
same,detection of a hydroxylamine metabolite,[8],unsuccessful
same,irreversible binding of 14C-tacrine-derived radioactivity to microsomal protein,[8],no detectable
same,rate and products of metabolism,[8],rapidly metabolized not only to 1-hydroxytacrine but also to 7-hydroxytacrine
same,Percent Bound,[9]; [14],4.62 ± 0.73%
same,Tacrine equivalents irreversibly bound to 1 mg microsomal protein,[9]; [14],0.042 ± 0.004 nmol
same,Tacrine equivalents irreversibly bound to 1 mg microsomal protein,"[9]; I induced Rat, without NADPH",0.003 nmol
same,Percent Bound,[9]; [15],14.5 ± 0.37%
same,Tacrine equivalents irreversibly bound to 1 mg microsomal protein,[9]; [15],0.139 ± 0.010 nmol
same,Tacrine equivalents irreversibly bound to 1 mg microsomal protein,"[9]; MC induced Rat, without NADPH",0.003 nmol
same,Percent Bound,[9]; [16],5.97 ± 0.68%
same,Tacrine equivalents irreversibly bound to 1 mg microsomal protein,[9]; [16],0.041 ± 0.001 nmol
same,Tacrine equivalents irreversibly bound to 1 mg microsomal protein,"[9]; Noninduced Rat, without NADPH",0.003 nmol
same,Percent Bound,[9]; [17],4.49 ± 0.85%
same,Tacrine equivalents irreversibly bound to 1 mg microsomal protein,[9]; [17],0.034 ± 0.006 nmol
same,Tacrine equivalents irreversibly bound to 1 mg microsomal protein,"[9]; PB induced Rat, without NADPH",0.002 nmol
same,Tacrine equivalents irreversibly bound to 1 mg microsomal protein,"[9]; Table 3, MC induced Rat, NADPH, N = 3",0.139 ± 0.010 nmol
same,tacrine-equivalents bound per mg hepatic protein,"rat hepatocytes; 5 min, N = 2",0.020 nmol
same,tacrine-equivalents bound per mg hepatic protein,rat hepatocytes; 15 min,0.037 nmol
same,tacrine-equivalents bound per mg hepatic protein,rat hepatocytes; 30 min,0.061 nmol
same,tacrine-equivalents bound per mg hepatic protein,rat hepatocytes; 60 min,0.128 nmol
same,tacrine-equivalents bound per mg hepatic protein,rat hepatocytes; 90 min,0.183 nmol
same,tacrine-equivalents bound per mg hepatic protein,rat hepatocytes; 120 min,0.294 nmol
same,tacrine-equivalents bound per mg hepatic protein,rat hepatocytes; 180 min,0.377 nmol
